Assay results from ChEMBL document CHEMBL6115057, “Discovery and Optimization of a Covalent AKR1C3 Inhibitor” (J Med Chem, 2025).
Numbering of substitutions follows the chain as printed. pIC50: −log10 of the molar value. Activity calls are given as the source filed them. No cut-off for these calls is given here.

Key:
[1] = target: T1, Aldo-keto reductase family 1 member C3 (Homo sapiens, UniProt P42330); assay: Inhibition of AKR1C3 in human COLO 205 cells by Cell based AKR activity assay
T1 sequence (P42330 whole entry): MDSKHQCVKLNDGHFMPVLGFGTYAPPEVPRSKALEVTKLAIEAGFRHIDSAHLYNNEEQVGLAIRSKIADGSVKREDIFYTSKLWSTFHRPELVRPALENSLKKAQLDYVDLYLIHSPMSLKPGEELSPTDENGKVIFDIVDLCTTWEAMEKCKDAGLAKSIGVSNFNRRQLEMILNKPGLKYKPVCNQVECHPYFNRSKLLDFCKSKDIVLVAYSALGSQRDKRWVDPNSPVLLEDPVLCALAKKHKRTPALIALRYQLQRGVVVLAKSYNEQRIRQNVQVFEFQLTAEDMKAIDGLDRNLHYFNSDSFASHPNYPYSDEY

[2] = target: T2, Aldo-keto reductase family 1 member C1 (Homo sapiens) (UniProt Q04828); assay: Binding affinity to AKR1C1 in human COLO 205 cells assessed as interaction at Y55 at 100 uM measured after 4 hrs; assay type: cell-based
T2 sequence (whole entry): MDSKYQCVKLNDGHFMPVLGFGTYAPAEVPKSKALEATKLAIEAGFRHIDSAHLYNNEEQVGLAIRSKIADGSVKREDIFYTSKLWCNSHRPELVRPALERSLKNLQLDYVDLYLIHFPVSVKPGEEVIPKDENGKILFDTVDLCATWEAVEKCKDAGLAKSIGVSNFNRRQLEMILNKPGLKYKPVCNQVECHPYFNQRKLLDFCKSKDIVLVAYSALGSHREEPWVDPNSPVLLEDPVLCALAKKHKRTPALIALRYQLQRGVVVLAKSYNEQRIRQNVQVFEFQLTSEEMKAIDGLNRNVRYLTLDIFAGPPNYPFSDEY

[3] = target: T3, Aldo-keto reductase family 1 member C2 (Homo sapiens) (UniProt P52895); assay: Binding affinity to AKR1C2 in human COLO 205 cells assessed as interaction at Y55 at 100 uM measured after 4 hrs; assay type: cell-based
T3 sequence (whole entry): T2 sequence (whole entry) with T38V, R47H, L54V, C87S, V151M, R170H, Q172L

[4] = target: T4, Aldo-keto reductase family 1 member C3 (Homo sapiens) (UniProt P42330); assay: Binding affinity to AKR1C3 in human COLO 205 cells assessed as interaction at Y24/Y55 at 100 uM measured after 4 hrs; assay type: cell-based
T4 sequence (whole entry): T1 sequence (P42330 whole entry)

[5] = target: T4, Aldo-keto reductase family 1 member C3 (Homo sapiens); assay: Inhibition of RJG-2121 probe labelling of AKR1C3 in human COLO 205 cells in presence of CuAAC Gel-Based (competitive ABPP) Chemical Proteomics Assay; assay type: cell-based
[6] = target: T4, Aldo-keto reductase family 1 member C3 (Homo sapiens); assay: Inhibition of RJG-2121 probe labelling of AKR1C3 (unknown origin) expressed in human HEK293T cells in presence of CuAAC measured after 5 to 120 mins by Gel-Based (competitive ABPP) Chemical Proteomics Assay; assay type: cell-based; details: time 5-120 min
[7] = target: T2, Aldo-keto reductase family 1 member C1 (Homo sapiens); assay: Inhibition of RJG-2121 probe labelling of AKR1C1 (unknown origin) expressed in human HEK293T cells in presence of CuAAC measured after 5 to 120 mins by Gel-Based (competitive ABPP) Chemical Proteomics Assay; assay type: cell-based; details: time 5-120 min
[8] = target: T3, Aldo-keto reductase family 1 member C2 (Homo sapiens); assay: Inhibition of RJG-2121 probe labelling of AKR1C2 (unknown origin) expressed in human HEK293T cells in presence of CuAAC measured after 5 to 120 mins by Gel-Based (competitive ABPP) Chemical Proteomics Assay; assay type: cell-based; details: time 5-120 min
[9] = tested on: HEK293T; assay: Inhibition of RJG-2121 probe labelling of AKR1C4 (unknown origin) expressed in human HEK293T cells in presence of CuAAC measured after 5 to 120 mins by Gel-Based (competitive ABPP) Chemical Proteomics Assay; assay type: cell-based; details: time 5-120 min
[10] = target: T4, Aldo-keto reductase family 1 member C3 (Homo sapiens); assay: Inhibition of TMT-SuTex labelling of AKR1C3 in human live COLO 205 cells assessed as competition ratio at 10 uM measured after 2 hrs relative to control; assay type: cell-based
[11] = species: Homo sapiens; assay: Selectivity ratio, ratio of IC50 for AKR1C1 (unknown origin) to AKR1C3 (unknown origin)
[12] = species: Homo sapiens; assay: Selectivity ratio, ratio of IC50 for AKR1C4 (unknown origin) to AKR1C3 (unknown origin)
[13] = target: Aldo-keto reductase family 1 member B10 (Homo sapiens) (UniProt O60218); assay: Binding affinity to AKR1B10 in human live COLO 205 cells assessed as interaction at Y49 by measuring competition ratio at 10 uM measured after 2 hrs relative to control; assay type: cell-based
Chain of Aldo-keto reductase family 1 member B10 (Homo sapiens) (O60218 whole entry, looked up): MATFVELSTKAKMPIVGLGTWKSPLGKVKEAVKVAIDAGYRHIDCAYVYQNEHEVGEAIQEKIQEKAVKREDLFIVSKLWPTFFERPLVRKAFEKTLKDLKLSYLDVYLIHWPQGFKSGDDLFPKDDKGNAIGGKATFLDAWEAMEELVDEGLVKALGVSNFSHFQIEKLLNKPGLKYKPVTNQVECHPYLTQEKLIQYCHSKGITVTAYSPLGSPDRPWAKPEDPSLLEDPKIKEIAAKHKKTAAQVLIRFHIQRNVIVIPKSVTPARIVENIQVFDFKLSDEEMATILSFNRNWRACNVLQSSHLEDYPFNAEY

[14] = target: T2, Aldo-keto reductase family 1 member C1 (Homo sapiens); assay: Binding affinity to AKR1C1 in human live COLO 205 cells assessed as interaction at Y24/T126 by measuring competition ratio at 10 uM measured after 2 hrs relative to control; assay type: cell-based
[15] = target: T5, Aldo-keto reductase family 1 member C1 (Homo sapiens, UniProt Q04828); assay: Inhibition of AKR1C1 (unknown origin) in human HEK293T cells assessed as turnover of coumberone to coumberol by live cell coumberone reduction assay; assay type: cell-based
T5 sequence (Q04828 whole entry): T2 sequence (whole entry)

[16] = target: T4, Aldo-keto reductase family 1 member C3 (Homo sapiens); assay: Binding affinity to AKR1C3 in human live COLO 205 cells assessed as interaction at Y24 at 10 uM measured after 2 hrs; assay type: cell-based
[17] = target: T6, Aldo-keto reductase family 1 member C2 (Homo sapiens, UniProt P52895); assay: Inhibition of AKR1C2 (unknown origin) in human HEK293T cells assessed as turnover of coumberone to coumberol by live cell coumberone reduction assay; assay type: cell-based
T6 sequence (P52895 whole entry): T2 sequence (whole entry) with T38V, R47H, L54V, C87S, V151M, R170H, Q172L

[18] = target: T7, Aldo-keto reductase family 1 member C4 (Homo sapiens, UniProt P17516); assay: Inhibition of AKR1C4 (unknown origin) in human HEK293T cells assessed as turnover of coumberone to coumberol by live cell coumberone reduction assay; assay type: cell-based
T7 sequence (P17516 whole entry): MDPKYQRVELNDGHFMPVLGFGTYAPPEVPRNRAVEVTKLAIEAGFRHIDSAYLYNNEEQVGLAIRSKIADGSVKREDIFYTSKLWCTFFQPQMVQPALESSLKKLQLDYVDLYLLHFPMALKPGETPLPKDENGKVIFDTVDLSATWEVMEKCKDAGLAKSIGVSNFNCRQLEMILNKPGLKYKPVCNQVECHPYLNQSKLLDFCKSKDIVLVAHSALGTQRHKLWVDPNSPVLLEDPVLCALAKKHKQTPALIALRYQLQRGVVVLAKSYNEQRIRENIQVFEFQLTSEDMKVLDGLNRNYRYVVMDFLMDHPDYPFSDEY

[19] = species: Homo sapiens; assay: Selectivity ratio, ratio of IC50 for AKR1C2 (unknown origin) to AKR1C3 (unknown origin)
[20] = target: T2, Aldo-keto reductase family 1 member C1 (Homo sapiens); assay: Inhibition of RJG-2121 probe labelling of AKR1C1 (unknown origin) expressed in human HEK293T cells in presence of CuAAC measured by Gel-Based (competitive ABPP) Chemical Proteomics Assay; assay type: cell-based; details: time 5-120 min
[21] = target: T4, Aldo-keto reductase family 1 member C3 (Homo sapiens); assay: Inhibition of TMT-SuTex labelling of AKR1C3 in human live COLO 205 cells assessed as blockade of probe labelling at 10 uM measured after 2 hrs relative to control; assay type: cell-based
[22] = target: T4, Aldo-keto reductase family 1 member C3 (Homo sapiens); assay: Binding affinity to AKR1C3 in human live COLO 205 cells assessed as interaction at Y272 by measuring competition ratio at 10 uM measured after 2 hrs relative to control; assay type: cell-based

pIC50 [1]	Compound	also measured
5.30	COc1ccccc1N1CCN(C(=O)c2ccc(S(=O)(=O)n3cnc(-c4ccco4)n3)cc2)CC1	
5.38	COc1ccccc1N1CCN(C(=O)c2ccc(S(=O)(=O)n3cnc(-c4ccncc4)n3)cc2)CC1	
< 5.00	O=C(Nc1ccc(-c2ccccn2)cc1)c1ccc(S(=O)(=O)n2cncn2)cc1	
< 5.00	O=C(Nc1ccc(-c2ccccc2OC(F)(F)F)cc1)c1ccc(S(=O)(=O)n2cncn2)cc1	
< 5.00	COc1ccccc1N1CCN(C(=O)c2cccc(S(=O)(=O)n3cnc(C4CCCCC4)n3)c2)CC1	
6.30	COc1ccc(-c2ncn(S(=O)(=O)c3ccc(C(=O)N4CCN(c5ccccc5OC)CC4)cc3)n2)cc1	
5.96	COc1ccccc1N1CCN(C(=O)c2ccc(S(=O)(=O)n3cnc(-c4ccc(OC(F)(F)F)cc4)n3)cc2)CC1	
7.21	COc1ccccc1N1CCN(C(=O)c2ccc(S(=O)(=O)n3cnc(C4CCC4)n3)cc2)CC1	
7.06	COc1ccccc1N1CCN(C(=O)c2ccc(S(=O)(=O)n3cnc(C4CC4)n3)cc2)CC1	
5.62	COc1ccccc1N1CCN(C(=O)c2ccc(S(=O)(=O)n3cncn3)cc2)CC1	
5.33	COc1ccccc1NC1CCN(C(=O)c2ccc(S(=O)(=O)n3cncn3)cc2)CC1	
< 5.00	COc1ccccc1N1CCN(C(=O)c2ccc(S(=O)(=O)n3cnc(-c4ccc(-c5ccccc5)cc4)n3)cc2)CC1	

Continued, compound first:

Compound	pIC50 [1]	also measured
COc1ccccc1N1CCN(C(=O)c2ccc(S(=O)(=O)n3cnc(-c4ccc(C(F)(F)F)cc4)n3)cc2)CC1	6.03	
COc1ccccc1N1CCN(C(=O)c2ccc(S(=O)(=O)n3cnc(-c4ccccc4)n3)cc2)CC1	5.57	
COc1ccccc1N1CCN(C(=O)c2ccc(S(=O)(=O)n3cnc(-c4ccc(F)cc4)n3)cc2)CC1	6.29	
O=C(c1ccc(S(=O)(=O)n2cncn2)cc1)N1CCN(c2ccccn2)CC1	5.59	
COc1ccc(N2CCN(C(=O)c3ccc(S(=O)(=O)n4cncn4)cc3)CC2)cc1	6.02	
NS(=O)(=O)c1ccc(-n2nc(CCCNC(=O)Nc3ccc(C(F)(F)F)cc3)cc2-c2ccccc2)cc1	< 5.00	
COc1ccccc1N1CCN(C(=O)c2ccc(S(=O)(=O)n3cnc(-c4cccc(F)c4)n3)cc2)CC1	6.21	
COc1ccccc1-c1ccc(NC(=O)c2ccc(S(=O)(=O)n3cncn3)cc2)cc1	5.06	
C#CCN(C)C(=O)c1cccc(S(=O)(=O)n2cnc(C3CC3)n2)c1		Activity [2]: Active; Activity [3]: Active
C#CCNC(=O)c1ccc(S(=O)(=O)n2cnc(C3CC3)n2)cc1		Activity [4]: Active
C#CCN(C)C(=O)c1ccc(S(=O)(=O)n2cnc(C3CC3)n2)cc1		Activity [4]: Active
O=C(c1ccc(S(=O)(=O)n2cncn2)cc1)N1CCN(c2ccc(I)cc2)CC1	6.48	
C#CCN(C)C(=O)c1ccc(S(=O)(=O)n2cncn2)cc1		Activity [2]: Active; Activity [3]: Active
COc1ccccc1N1CCN(C(=O)c2ccc(S(=O)(=O)n3cnc(-c4ccccc4F)n3)cc2)CC1	5.33	
C#CCNC(=O)c1cccc(S(=O)(=O)n2cncn2)c1		Activity [4]: Active
COc1ccccc1N1CCN(C(=O)c2cccc(S(=O)(=O)n3cncn3)c2)CC1	< 5.00	Activity [5]: inactive; inhibition [6]: inactive; inhibition [7]: inactive; inhibition [8]: inactive; inhibition [9]: inactive
COc1ccccc1N1CCN(C(=O)c2ccc(S(=O)(=O)n3cnc(-c4ccc(Br)cc4)n3)cc2)CC1	6.01	
COc1ccccc1N1CCN(C(=O)c2ccc(S(=O)(=O)n3cnc(-c4cccnc4)n3)cc2)CC1	5.15	
C#CCNC(=O)c1ccc(S(=O)(=O)n2cnc(C3CCCCC3)n2)cc1		Activity [4]: Active
COc1ccccc1N1CCN(C(=O)c2cccc(S(=O)(=O)n3cnc(C4CC4)n3)c2)CC1	5.04	
COc1ccccc1N1CCN(C(=O)c2ccc(S(=O)(=O)n3cnc(C4CCCC4)n3)cc2)CC1	7.39	
COc1ccccc1N1CCN(C(=O)c2ccc(S(=O)(=O)n3cnc(C4CCCCC4)n3)cc2)CC1	7.57	Ratio [10]: 0.25; Ratio IC50 [11]: 2380; Ratio IC50 [12]: 461; Ratio [13]: 1; inhibition [5]: Dose-dependent-effect; Ratio [14]: 1; pIC50 [15]: 4.51; Activity [16]: Active; pIC50 [17]: 4.64; pIC50 [18]: 5.22; Ratio IC50 [19]: 1770; inhibition [20]: Time-dependent-effect; inhibition [21]: > 75%; Ratio [22]: 1
COc1ccccc1N1CCN(C(=O)c2cccc(S(=O)(=O)n3cnc(-c4cccnc4)n3)c2)CC1	< 5.00	
COc1cccc(N2CCN(C(=O)c3ccc(S(=O)(=O)n4cncn4)cc3)CC2)c1	6.27	
